For assay [1], the system named is spontaneously hypertensive rat (SHR). The experiment in a line: blood pressure lowering in conscious spontaneously hypertensive rats (SHR), AHP3. Type of assay: in vivo. Conditions: 30 mg/kg PO, read-out: Max % decrease in blood pressure, 30 mg/kg PO in SHR. As for the experimental part:
(§1) Thus, for example, compounds of formula I when administered intraperitoneally or orally to 2 kidney, 1-clip Goldblatt (renal) hypertensive rats (See S Sen, et al., "Role of Renin-Angiotensin System in Chronic Renal Hypertensive Rats," Hypertension 1:427-434 (1979) and Clin. Soc. 57:53-62, 1979, "Antihypertensive Effect of Prolonged Blockade of Angiotensin Formation in Benign and Malignant, one-and two-kidney Goldblatt Hypertensive Rats".) at doses in the range of 1-100 mg/kg cause 10-80 mmHg drops in blood pressure. […] Angiotensin binding inhibition activity and blood pressure lowering activity in renal hypertensive rats of the optimally substituted examples of formula I are listed in Table 1. Blood pressure lowering activity in spontaneously hypertensive rats of optimally substituted examples of formula II are listed in Table 2.
(§2) […] EVALUATION (AHP3)
(§3) A Method for the Direct Monitoring of Aortic Blood Pressure and Heart Rate from Conscious Rats
(§4) The continuous monitoring of pulsatile blood pressure (BP) from unrestrained conscious rats surgically equipped with polyethylene cannulas was accomplished by means of a computer assisted data capture scheme (CADCS). The basic elements of the methodology are the cannulation procedure and the CADCS.
(§5) Rats were anesthetized with Telazol (1:1 tiletamine HCl and zolazepam HCl); 20-40 mg/kg IM and the descending aorta exposed via a midline incision. Cannulas fabricated from polyethylene tubing were inserted into the aorta via an undersized puncture hole below the renal arteries. The puncture hole was made by a 23 G disposable needle with a section of the aorta clamped off above and below the puncture site. The cannulas, consisting of a PE100 (0.86 mm ID) body and a PE50 (0.58 mm ID) tip, were attached to a trocar, inserted through the psoas muscle, and passed subcutaneously along the midline of the back and externalized between the ears. The cannulas were anchored to the psoas muscle and between the scalulae (3-0 green braided suture). The midline incision was closed in two steps (muscle first, skin second) using continuous over-and-over sutures (4-0 chronic). Each rat was then given penicillin 30,000 units subcutaneously (Penicillin G Procaine Sterile Suspension).
(§6) The rats were fitted with a harness-springswivel assembly designed to protect the cannula and to provide the rat relative freedom of movement. The harnesses were fabricated from nylon hook and loop tape cemented to a metal plate to which spring wires (18-8 stainless steel), were attached to brass swivels. Each polyethylene cannula was channeled through a spring and connected through a swivel to a pressure transducer (Model P23Gb; Statham Instruments; Hato Rey, Puerto Rico) and an infusion pump (Sage model 234-7; Orion Research, Cambridge, Mass.) by means of PE100 tubing. While on test, each rat received a continuous slow infusion of heparinized saline solution (approximately 0.40 ml or 40 units of heparin per 24 hr period) to prevent clot formation. Additional "flushes" of the cannula with heparinized saline were carried out when the aortic pulse pressure (systolic minus diastolic) was less than 25 mm Hg.
(§7) The pulsatile blood pressure of each of 32 rats was monitored continuously by two signal conditioning units (Gould, Clev., Ohio). The signals from these units were monitored and digital data for mean, systolic, and diastolic blood pressures as well as for heart rate were calculated every 5 min by two in-laboratory computers (Hewlett Packard, Cupertino, Calif.). These in-laboratory computers have the capacity to store 32 days of this 5 min data. Communication with the mainframe research computer (IBM 3083) from the two inlaboratory computers allowed for data analysis and report generation. […]

For assay [2], the target named is angiotensin II binding to rat adrenal receptor preparations. The experiment in a line: inhibition of 125I-angiotensin II binding to rat adrenal receptor preparations.
In assay [3] the test system is 2 kidney, 1-clip Goldblatt hypertensive rat (RHR). The experiment in a line: blood pressure lowering in conscious 2 kidney, 1-clip Goldblatt (renal) hypertensive rats (RHR), AHP3. Type of assay: in vivo. Conditions: 30 mg/kg ip, read-out: Max % decrease in blood pressure, 30 mg/kg ip in RHR. As for the experimental part:
as §1, §2, §3, §4, §5, §6, §7

This note sets out measurements from patent publication US4812462A, “4,5,6,7-tetrahydro-1H-imidazo[4,5-c]pyridine-6-carboxylic acid analogs having antihypertensive activity” (Warner-Lambert Company, priority 1986, dated 1989).

Structures can show the parent of a compound that is named as a salt.

Regarding `CC(C)(C)N1C(=O)C2Cc3[nH]cnc3CN2C1=O` (stereo not shown) [Example 156, 7-(1,1-Dimethylethyl)-8a,9-dihydro-1H-diimidazo[1,5-a:4',5'-d]pyridine-6,8(4H,7H)-dione], the change in vivo at 30 mg/kg in assay [1] was -18%. `O=C(O)C1Cc2c(ncn2Cc2ccccc2)CN1C(=O)C(c1ccccc1)c1ccccc1` (stereo not shown) [Example 169, 5-(Diphenylacetyl)-4,5,6,7-tetrahydro-1-(phenylmethyl)-1H-imidazo[4,5-c]pyridine-6-carboxylic acid] had an IC50 in assay [2] of 1 µM. Also, the change in vivo at 30 mg/kg in assay [3] is -20%.

`O=C(O)C1Cc2c(ncn2CCC2CCCCC2)CN1C(=O)C(c1ccccc1)c1ccccc1` (stereo not shown) [Example 4, 1-(2-Cyclohexylethyl)-5-diphenylacetyl-4,5,6,7-tetrahydro-1H-imidazo[4,5-c]pyridine-6-carboxylic acid] returned an IC50 in assay [2] of 0.24 µM. Moreover, the change in vivo at 30 mg/kg in assay [3] was -13%. Take `Cc1cc(Cn2cnc3c2CC(C(=O)O)N(C(=O)C(c2ccccc2)c2ccccc2)C3)ccc1N` (stereo not shown) [Example 13, 1-(4-Amino-3-methylphenyl)methyl-5-diphenylacetyl-4,5,6,7-tetrahydro-1H-imidazo[4,5-c]pyridine-6-carboxylic acid]: the change in vivo at 30 mg/kg in assay [3] is -22%. Turning to `COc1ccc(N2C(=O)C3Cc4[nH]cnc4CN3C2=O)cc1` (stereo not shown) [Example 155, 8a,9-Dihydro-7-(4-methoxyphenyl)-1H-diimidazo[1,5-a:4',5'-d]pyridine-6,8(4H,7H)-dione], the change in vivo at 30 mg/kg in assay [1] was -39%. In assay [2], `O=C(O)C1Cc2c(ncn2Cc2ccc(C(F)(F)F)cc2)CN1C(=O)C(c1ccccc1)c1ccccc1` (stereo not shown) [Example 21, 1-(4-Trifluoromethylphenyl)methyl-5-diphenylacetyl-4,5,6,7 tetrahydro-1H-imidazo[4,5-c]pyridine-6-carboxylic acid] returned an IC50 of 0.19 µM. In addition, the change in vivo at 30 mg/kg in assay [3] was -18%. For the compound `O=C1C2Cc3[nH]cnc3CN2C(=S)N1c1ccccc1` (stereo not shown) [Example 161, 1,4,6,7,8a,9-Hexahydro-7-phenyl-6-thioxo-8H-diimidazo[1,5-a:4',5'-d]pyridine-8-one], in assay [1], the change in vivo at 30 mg/kg was -28%. Same read-out and setting: next, `COc1ccc(N2C(=O)C3Cc4c(ncn4Cc4ccc([N+](=O)[O-])c(C)c4)CN3C2=O)cc1` (stereo not shown) [Example 273, 1H-Diimidazo[1,5-c:4',5'-d]pyridine-6,8(4H,7H)-dione, 8a,9-dihydro-7-(4-methoxyphenyl)-1-[(3-methyl-4nitrophenyl)methyl], monohydrochloride]: -14%; `COc1ccc(N2C(=O)C3Cc4[nH]cnc4CN3C2=S)cc1` (stereo not shown) [Example 159, 1,4,6,7,8a,9-Hexahydro-7-(4-methoxyphenyl)-6-thioxo-8H-diimidazo[1,5-a:4',5'-d]pyridine-8-one]: -39%; `COc1ccc(N2C(=O)C3Cc4c(ncn4Cc4ccccc4)CN3C2=S)cc1` (stereo not shown) [Example 128, 6,7,8a,9-Tetrahydro-7-(4-methoxyphenyl)-1-(phenylmethyl)-6-thioxo-1H-diimidazo[1,5-a:4',5'-d]pyridine-8(4H)-one]: -32%. Consider `O=C(O)[C@@H]1Cc2c(ncn2Cc2ccccc2)CN1C(=O)C(c1ccc(Cl)cc1)c1ccc(Cl)cc1` [Example 22, (S)-5-[bis(4-chlorophenyl)acetyl]-4,5,6,7-tetrahydro-1-(phenylmethyl)-1H-imidazo[4,5-c]pyridine-6-carboxylic acid], for which the IC50 in assay [2] stood at 6.8 µM. Besides, the change in vivo at 30 mg/kg in assay [3] is -27%. `O=C(O)C1Cc2c(ncn2CCc2ccccc2)CN1C(=O)Cc1ccccc1` (stereo not shown) [Example 6, 1-(2-Phenylethyl)-5-phenylacetyl-4,5,6,7-tetrahydro-1H-imidazo[4,5-c]pyridine-6-carboxylic acid]: the IC50 in assay [2] was determined as 2.4 µM. The change in vivo at 30 mg/kg in assay [3] is -16%. `Cc1cccc(Cn2cnc3c2C[C@@H](C(=O)O)N(C(=O)C(c2ccccc2)c2ccccc2)C3)c1` [Example 75, 1H-Imidazo[4,5-c]pyridine-6-carboxylic acid, 5-(diphenylacetyl)-4,5,6,7-tetrahydro-1-[(3-methylphenyl)methyl]-, (S)-]: the IC50 in assay [2] came out at 0.27 µM. Moreover, the change in vivo at 30 mg/kg in assay [3] was -30%. Take `COc1ccc(N2C(=O)C3Cc4[nH]cnc4CN3C2=O)c(OC)c1` (stereo not shown) [Example 157, 7-(2,4-Dimethoxyphenyl)-8a,9-dihydro-1H-diimidazo[1,5-a:4',5'-d]pyridine-6,8(4H,7H)-dione]: in assay [1], the change in vivo at 30 mg/kg is -22%.

Take `COc1ccc(N2C(=O)C3Cc4c(ncn4Cc4ccccc4)CN3C2=O)cc1` (stereo not shown) [Example 133, 1H-Diimidazo[1,5-a:4',5'-d]pyridine-6,8(4H,7H)-dione, 8a,9-dihydro-7-(4-methoxyphenyl)-1-(phenylmethyl)-, monohydrochloride]: the change in vivo at 30 mg/kg in assay [1] is -29%. The same measure, in the same setting: next, `CC(C)N1C(=O)C2Cc3[nH]cnc3CN2C1=S` (stereo not shown) [Example 162, 1,4,6,7,8a,9-Hexahydro-7-(1-methylethyl)-6-thioxo-8H-diimidazo-(1,5-a:4',5'-d]pyridine-8-one]: -39%.

With `COc1ccc(Cn2cnc3c2C[C@@H](C(=O)O)N(C(=O)C(c2ccccc2)C2CCCC2)C3)cc1C` (stereo partly drawn) [Example 24, (S)-5-(cyclopentylphenylacetyl)-4,5,6,7-tetrahydro-1-[(4-methoxy-3-methylphenyl)methyl]-1H-imidazo-[4,5-c]pyridine-6-carboxylic acid], the IC50 in assay [2] was 0.07 µM. Moreover, in assay [3], the change in vivo at 30 mg/kg is -16%. Take `CC(C)N1C(=O)[C@@H]2Cc3ncn(C)c3CN2C1=O` [Example 129, (S)-8a,9-dihydro-3-methyl-7-(1-methylethyl)-3H-diimidazo-[1,5-a:4',5'-d]pyridine-6,8(4H,7H)-dione]: the change in vivo at 30 mg/kg in assay [1] was -36%. Regarding `CC(C)N1C(=O)C2Cc3c(ncn3Cc3ccccc3)CN2C1=O` (stereo not shown) [Example 130, 8a,9-Dihydro-7-(1-methylethyl)-1-(phenylmethyl)-1H-diimidazo[1,5-a:4',5'-d]pyridine-6,8(4H,7H)-dione hydrobromide], the change in vivo at 30 mg/kg in assay [1] is -21%. Take `CN(C)c1ccc(N2C(=O)C3Cc4[nH]cnc4CN3C2=S)cc1` (stereo not shown) [Example 160, 7-[4-(Dimethylamino)phenyl]-1,4,6,7,8a,9-hexahydro-6-thioxo-8H-diimidazo[1,5-a:4',5'-d]pyridine-8-one]: the change in vivo at 30 mg/kg in assay [1] was -34%. `O=C(O)C1Cc2c(ncn2Cc2ccccc2)CN1C(=O)C1c2ccccc2-c2ccccc21` (single isomer, unassigned) [Example 29, 1H-Imidazo[4,5-c]pyridine-6-carboxylic acid, 5-[(9H-fluoren-9-yl)carbonyl]-4,5,6,7-tetrahydro-1-(phenylmethyl)-, (+)-]: the half-maximal inhibitory concentration (IC50) in assay [2] stood at 8 µM. `COc1ccc(N2C(=O)C3Cc4c(ncn4Cc4ccc(OC)c(C)c4)CN3C2=S)cc1` (stereo not shown) [Example 127, 6,7,8a,9-Tetrahydro-1-[(4-methoxy-3-methylphenyl)-methyl]-7-(4-methoxyphenyl)-6-thioxo-1H-diimidazo-[1,5-a:4',5'-d]-pyridine-8(4H)-one]: the change in vivo at 30 mg/kg in assay [1] is -24%. `COc1ccc(Cn2cnc3c2C[C@@H](C(=O)O)N(C(=O)C(c2ccc(C)cc2)c2ccc(C)cc2)C3)cc1C` [Example 25, (S)-[bis(4-methylphenyl)acetyl]-4,5,6,7-tetrahydro-1-[(4-methoxy-3-methylphenyl)methyl]-1H-imidazo[4,5-c]-pyridine-6-carboxylic acid]: the change in vivo at 30 mg/kg in assay [3] is -12%. Consider `CC(C)N1C(=O)C2Cc3nc[nH]c3CN2C1=O` (stereo not shown) [Example 154, 8a,9-Dihydro-7-(1-methylethyl)-3H-diimidazo[1,5-a:4',5'-d]-pyridine-6,8(4H,7H)-dione], for which, in assay [1], the change in vivo at 30 mg/kg is -39%.

One may read the IC50 as the midpoint of a concentration-inhibition curve.
